According to patent US20230212215A1, “GLUCOCORTICOID RECEPTOR MODULATORS” (TRUSTEES OF DARTMOUTH COLLEGE, priority 2020, published 2023):

Target: T1, human GR (Homo sapiens, UniProt P04150)
T1 construct: purchased Indigo Biosciences
T1 sequence (P04150 1-777): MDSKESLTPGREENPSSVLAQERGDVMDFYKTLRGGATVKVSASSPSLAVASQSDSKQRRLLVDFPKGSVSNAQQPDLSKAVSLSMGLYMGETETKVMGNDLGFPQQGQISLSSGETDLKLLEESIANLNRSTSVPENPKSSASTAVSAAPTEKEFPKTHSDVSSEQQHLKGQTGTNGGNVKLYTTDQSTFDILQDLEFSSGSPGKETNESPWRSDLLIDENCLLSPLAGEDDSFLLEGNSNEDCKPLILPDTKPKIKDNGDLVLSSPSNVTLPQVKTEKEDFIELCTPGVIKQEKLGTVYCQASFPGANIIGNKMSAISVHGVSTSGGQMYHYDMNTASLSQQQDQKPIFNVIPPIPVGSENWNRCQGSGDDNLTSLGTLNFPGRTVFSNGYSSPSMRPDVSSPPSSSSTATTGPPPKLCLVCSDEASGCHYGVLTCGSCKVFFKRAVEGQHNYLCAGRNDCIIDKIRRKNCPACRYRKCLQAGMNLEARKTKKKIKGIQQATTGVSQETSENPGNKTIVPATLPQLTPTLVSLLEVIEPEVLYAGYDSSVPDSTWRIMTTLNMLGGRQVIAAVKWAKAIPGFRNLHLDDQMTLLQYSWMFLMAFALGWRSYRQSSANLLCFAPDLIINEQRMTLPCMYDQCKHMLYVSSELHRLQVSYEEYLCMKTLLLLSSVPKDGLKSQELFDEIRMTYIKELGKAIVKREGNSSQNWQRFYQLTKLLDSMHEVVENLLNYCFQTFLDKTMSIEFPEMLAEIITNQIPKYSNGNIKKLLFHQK
Test: human GR antagonist assay (Indigo Biosciences)
Assay type: cell-based
Text: The activity of a compound can be determined using various known methods. For example, GR assays can be used. Such GR assays include binding assays using, for example, cells transfected with the human glucocorticoid receptor (NR3C1). Several cell based model systems that allow sensitive detection and monitoring of steroids or other compounds with GR bioactivity are known. Most cell based GR reporter models use transgenic gene constructs that include a glucocorticoid response element (GRE) that controls reporter gene (e.g., lucifersrase) expression. For example, a human GR Reporter Assay System is commercially available from Indigo Biosciecnes. […] The principle application of such an assay product is to quantify functional activities, either agonist or antagonist, that a compound may exert against the human glucocorticoid receptor.
The activity of certain compounds were tested in a human GR antagonist assay (Indigo Biosciences).

IC50 (nM) (Table 1)	EC50 (Table A)	IC50 (text of Example 2)	Structure (SMILES)	HillSlope (Table 1)
No activity	not active	not active	Cc1ncccc1NC(=O)c1ccc2c(c1)CCC1=C3C[C@H](O)C[C@]3(C)CC[C@]12Cc1ccccc1 [Compound A, (9S,13S,16R)-9-benzyl-16-hydroxy-13-methyl-N-(2-methylpyridin-3-yl)-7,9,11,12,13,15,16,17-octahydro-6H-cyclopenta[α]phenanthrene-3-carboxamide]	–
–	–	–	CC#C[C@]1(O)CC[C@H]2[C@@H]3CCC4=CC(=O)CCC4=C3[C@@H](c3ccc(N(C)C)cc3)C[C@@]21C [Mifepristone, reference compound]	0.8706
